Data published in patent publication US9725445B2, “Cycloalkyl nitrile pyrazolo pyridones as Janus kinase inhibitors” (Merck Sharp & Dohme Corp., priority 2013, dated 2017).
Where two headings read alike, the source gives them in different places.

How the values were obtained:
JAK1 = JAK1 (Homo sapiens (Human), UniProt P23458); test: Jak biochemical HTRF assay, JAK1; details: recombinant GST-tagged catalytic domain
JAK2 = JAK2 (Homo sapiens (Human), UniProt O60674); test: Jak biochemical HTRF assay, JAK2; details: recombinant GST-tagged catalytic domain
[1] = HTRF biochemical assay, read-out: JAK1 IC50
[2] = HTRF biochemical assay, read-out: JAK2 IC50

JAK1, sequence (P23458 875-1153): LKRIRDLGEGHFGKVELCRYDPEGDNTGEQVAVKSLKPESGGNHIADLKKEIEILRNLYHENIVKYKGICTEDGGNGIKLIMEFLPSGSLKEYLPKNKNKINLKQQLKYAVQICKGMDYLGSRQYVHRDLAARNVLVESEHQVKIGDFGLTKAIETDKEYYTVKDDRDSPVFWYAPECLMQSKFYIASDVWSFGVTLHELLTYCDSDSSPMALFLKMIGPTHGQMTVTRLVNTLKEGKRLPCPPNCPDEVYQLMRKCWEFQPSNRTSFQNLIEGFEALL
JAK2, sequence (O60674 849-1124): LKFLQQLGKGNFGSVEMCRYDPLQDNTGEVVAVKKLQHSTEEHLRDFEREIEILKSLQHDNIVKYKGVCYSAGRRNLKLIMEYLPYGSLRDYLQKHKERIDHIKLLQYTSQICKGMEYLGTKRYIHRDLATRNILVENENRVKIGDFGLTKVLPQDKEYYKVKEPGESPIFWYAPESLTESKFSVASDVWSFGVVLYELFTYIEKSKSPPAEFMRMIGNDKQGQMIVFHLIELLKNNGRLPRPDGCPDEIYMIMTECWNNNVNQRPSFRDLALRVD

SMILES | IC50 (JAK1; [1]) | IC50 (JAK2; [2]) | IC50 (JAK1; JAK1 IC50, HTRF biochemical assay) | IC50 (JAK2; JAK2 IC50, HTRF biochemical assay)
N#C[C@H]1CCCC[C@@H]1n1nc(Nc2ccc(C3CCCN3)cc2)c2c(=O)[nH]ccc21 (single isomer, unassigned) [Example 3-72, (1S,2S)-2-[4-oxo-3-({4-[(2R or 2S)-pyrrolidin-2-yl]phenyl}amino)-4,5-dihydro-1H-pyrazolo[4,3-c]pyridin-1-yl]cyclohexanecarbonitrile] | 0.45 nM | 0.5 nM |  | 
CC(C)(C)OC(=O)CN1Cc2ccc(Nc3nn([C@H]4CCCC[C@@H]4C#N)c4cc[nH]c(=O)c34)cc2C1 [Example 3-164, tert-butyl [5-({1-[(1S,2S)-2-cyanocyclohexyl]-4-oxo-4,5-dihydro-1H-pyrazolo[4,3-c]pyridin-3-yl}amino)-1,3-dihydro-2H-isoindol-2-yl]acetate] | 0.33 nM | 2.5 nM |  | 
N#C[C@H]1CCCC[C@@H]1n1nc(Nc2ccc(C(O)C(F)(F)F)cc2)c2c(=O)[nH]ccc21 (single isomer, unassigned) [Example 3-9, (1S,2S)-2-[4-oxo-3-({4-[(1S or 1R)-2,2,2-trifluoro-1-hydroxyethyl]phenyl}amino)-4,5-dihydro-1H-pyrazolo[4,3-c]pyridin-1-yl]cyclohexanecarbonitrile] | 0.081 nM | 0.54 nM |  | 
CC(=O)NCc1cc(Nc2nn([C@H]3CCCC[C@@H]3C#N)c3cc[nH]c(=O)c23)ccc1S(=O)(=O)N(C)C [Example 3-40, N-[5-({1-[(1S,2S)-2-cyanocyclohexyl]-4-oxo-4,5-dihydro-1H-pyrazolo[4,3-c]pyridin-3-yl}amino)-2-(dimethylsulfamoyl)benzyl]acetamide] | 0.1 nM | 0.79 nM |  | 
COCCn1cc(-c2ccc(Nc3nn([C@H]4CCCC[C@@H]4C#N)c4cc[nH]c(=O)c34)cc2)cn1 [Example 3-145, (1S,2S)-2-[3-({4-[1-(2-methoxyethyl)-1H-pyrazol-4-yl]phenyl}amino)-4-oxo-4,5-dihydro-1H-pyrazolo[4,3-c]pyridin-1-yl]cyclohexanecarbonitrile] | 0.12 nM | 1.8 nM |  | 
N#C[C@H]1CCC[C@@H]1n1nc(Nc2ccc(C(O)C(F)(F)F)cc2)c2c(=O)[nH]ccc21 (stereo partly drawn) [Example 3-98, (1S,2S)-2-(4-oxo-3-{[4-(2,2,2-trifluoro-1-hydroxyethyl)phenyl]amino}-4,5-dihydro-1H-pyrazolo[4,3-c]pyridin-1-yl)cyclopentanecarbonitrile] | 0.075 nM | 0.53 nM |  | 
CC(C)(C)OC(=O)N1[C@@H]2CC[C@H]1C[C@H](c1ccc(Nc3nn([C@H]4CCCC[C@@H]4C#N)c4cc[nH]c(=O)c34)cc1)C2 (single isomer, unassigned) [Example 3-166] |  |  | 0.96 nM | 6.5 nM
CC(C)(C)[S@@+]([O-])N[C@@H](c1cccc(Nc2nn([C@H]3CCCC[C@@H]3C#N)c3cc[nH]c(=O)c23)c1)C(F)(F)F [Example 3-41, N-{(1S)-1-[3-({1-[(1S,2S)-2-cyanocyclohexyl]-4-oxo-4,5-dihydro-1H-pyrazolo[4,3-c]pyridin-3-yl}amino)phenyl]-2,2,2-trifluoroethyl}-2-methylpropane-2-sulfinamide] | 1.6 nM | 29 nM |  | 
N#C[C@H]1CCCC[C@@H]1n1nc(Nc2cccc(Cn3ccnc3)c2)c2c(=O)[nH]ccc21 [Example 3-47, (1S,2S)-2-(3-{[3-(1H-imidazol-1-ylmethyl)phenyl]amino}-4-oxo-4,5-dihydro-1H-pyrazolo[4,3-c]pyridin-1-yl)cyclohexanecarbonitrile] | 0.78 nM | 2.2 nM |  | 
N#C[C@H]1CCCC[C@@H]1n1nc(Nc2ccc3c(c2)CN(CC(F)(F)F)S3(=O)=O)c2c(=O)[nH]ccc21 [Example 3-58, (1S,2S)-2-(3-{[1,1-dioxido-2-(2,2,2-trifluoroethyl)-2,3-dihydro-1,2-benzisothiazol-5-yl]amino}-4-oxo-4,5-dihydro-1H-pyrazolo[4,3-c]pyridin-1-yl)cyclohexanecarbonitrile] | 0.05 nM | 0.58 nM |  | 
CN(C)C(=O)c1ccc(Nc2nn([C@H]3CCCC[C@@H]3C#N)c3cc[nH]c(=O)c23)cc1C1CC1 [Example 3-69, 4-({1-[(1S,2S)-2-cyanocyclohexyl]-4-oxo-4,5-dihydro-1H-pyrazolo[4,3-c]pyridin-3-yl}amino)-2-cyclopropyl-N,N-dimethylbenzamide] | 2.1 nM | 5.7 nM |  | 
CC(C)(C)S(=O)(=O)c1ccc(Nc2nn([C@H]3CCC[C@@H]3C#N)c3cc[nH]c(=O)c23)cc1 [Example 3-106, (1S,2S)-2-(3-{[4-(tert-butylsulfonyl)phenyl]amino}-4-oxo-4,5-dihydro-1H-pyrazolo[4,3-c]pyridin-1-yl)cyclopentanecarbonitrile] | 0.12 nM | 0.36 nM |  | 
C[C@@H](NCC(F)(F)F)c1ccc(Nc2nn([C@H]3CCCC[C@@H]3C#N)c3cc[nH]c(=O)c23)cc1 [Example 3-66, (1S,2S)-2-{4-oxo-3-[(4-{(1R)-1-[(2,2,2-trifluoroethyl)amino]ethyl}phenyl)amino]-4,5-dihydro-1H-pyrazolo[4,3-c]pyridin-1-yl}cyclohexanecarbonitrile] | 0.2 nM | 0.32 nM |  | 
C[C@H](N[C@@H]1CC[C@H](n2nc(Nc3ccc(OC(F)(F)F)cc3)c3c(=O)[nH]ccc32)[C@@H](C#N)C1)C1CC1 [Example 5-27, (1S,2S,5R)-5-(((S)-1-cyclopropylethyl)amino)-2-(4-oxo-3-((4-(trifluoromethoxy)phenyl)amino)-4,5-dihydro-1H-pyrazolo[4,3-c]pyridin-1-yl)cyclohexanecarbonitrile] | 3.7 nM | 233 nM |  | 
N#C[C@H]1CCCC[C@@H]1n1nc(Nc2ccc([C@H]3C[C@H]4CC[C@@H](C3)N4)cc2)c2c(=O)[nH]ccc21 [Example 20-2] | 0.39 nM | 0.39 nM |  | 
CC(C)S(=O)(=O)c1ccc(Nc2nn([C@H]3CCC[C@@H]3C#N)c3cc[nH]c(=O)c23)cc1 [Example 3-105, (1S,2S)-2-[3-({4-[(1-methylethyl)sulfonyl]phenyl}amino)-4-oxo-4,5-dihydro-1H-pyrazolo[4,3-c]pyridin-1-yl]cyclopentanecarbonitrile] | 0.11 nM | 0.4 nM |  | 
N#C[C@H]1CCC[C@@H]1n1nc(Nc2ccc3c(c2)CN(CC(F)(F)F)C3=O)c2c(=O)[nH]ccc21 [Example 3-97, (1S,2S)-2-(4-oxo-3-{[1-oxo-2-(2,2,2-trifluoroethyl)-2,3-dihydro-1H-isoindol-5-yl]amino}-4,5-dihydro-1H-pyrazolo[4,3-c]pyridin-1-yl)cyclopentanecarbonitrile] | 0.082 nM | 0.44 nM |  | 
N#CCC1(n2nc(Nc3ccc(C(N)C(F)F)cc3)c3c(=O)[nH]ccc32)CCCCC1 (single isomer, unassigned) [Example 9-1, (S or R)-2-(1-(3-(4-(1-Amino-2,2-difluoroethyl)phenylamino)-4-oxo-4,5-dihydro-1H-pyrazolo[4,3-c]pyridin-1-yl)cyclohexyl)acetonitrile] | 0.19 nM | 0.47 nM |  | 
Cc1cn(Cc2cccc(Nc3nn([C@H]4CCCC[C@@H]4C#N)c4cc[nH]c(=O)c34)c2)nn1 [Example 3-37, (1S,2S)-2-[3-({3-[(4-methyl-1H-1,2,3-triazol-1-yl)methyl]phenyl}amino)-4-oxo-4,5-dihydro-1H-pyrazolo[4,3-c]pyridin-1-yl]cyclohexanecarbonitrile] | 0.18 nM | 2.1 nM |  | 
N#C[C@H]1CCCC[C@@H]1n1nc(Nc2ccc(C(O)C(F)(F)F)cc2)c2c(=O)[nH]ccc21 (single isomer, unassigned) [Example 3-8] | 0.13 nM | 0.82 nM |  | 

Second part, led by results:

IC50 (JAK1; [1]) | IC50 (JAK2; [2]) | SMILES | IC50 (JAK1; JAK1 IC50, HTRF biochemical assay) | IC50 (JAK2; JAK2 IC50, HTRF biochemical assay)
0.47 nM | 0.45 nM | CC(C)N1Cc2cc(Nc3nn([C@H]4CCCC[C@@H]4C#N)c4cc[nH]c(=O)c34)ccc2C1C (single isomer, unassigned) [Example 19-2, (1S,2S)-2-(3-(((R or S)-2-isopropyl-1-methylisoindolin-5-yl)amino)-4-oxo-4,5-dihydro-1H-pyrazolo[4,3-c]pyridin-1-yl)cyclohexanecarbonitrile] |  | 
0.11 nM | 0.41 nM | N#C[C@H]1CCCC[C@@H]1n1nc(Nc2ccc([C@H](N)C(F)(F)F)cc2)c2c(=O)[nH]ccc21 [Example 7-4, (1S,2S)-2-[3-({4-[(1S)-1-amino-2,2,2-trifluoroethyl]phenyl}amino)-4-oxo-4,5-dihydro-1H-pyrazolo[4,3-c]pyridin-1-yl]cyclohexanecarbonitrile] |  | 
0.32 nM | 3.2 nM | N#C[C@H]1CCCC[C@@H]1n1nc(Nc2ccc(-c3ccno3)cc2)c2c(=O)[nH]ccc21 [Example 15-5, (1S,2S)-2-{3-[(4-isoxazol-5-ylphenyl)amino]-4-oxo-4,5-dihydro-1H-pyrazolo[4,3-c]pyridin-1-yl}cyclohexanecarbonitrile] |  | 
1.8 nM | 3.1 nM | CC(C)C(c1ccc(Nc2nn([C@H]3CCCC[C@@H]3C#N)c3cc[nH]c(=O)c23)cc1)n1cc(C(=O)OC(C)(C)C)nn1 (single isomer, unassigned) [Example 15-58, tert-butyl 1-{(1R or 1S)-1-[4-({1-[(1S,2S)-2-cyanocyclohexyl]-4-oxo-4,5-dihydro-1H-pyrazolo[4,3-c]pyridin-3-yl}amino)phenyl]-2-methylpropyl}-1H-1,2,3-triazole-4-carboxylate] |  | 
0.14 nM | 0.24 nM | CC(C)(c1ccc(Nc2nn([C@H]3CCCC[C@@H]3C#N)c3cc[nH]c(=O)c23)cc1)n1nccn1 [Example 15-29, (1S,2S)-2-[3-({4-[1-methyl-1-(2H-1,2,3-triazol-2-yl)ethyl]phenyl}amino)-4-oxo-4,5-dihydro-1H-pyrazolo[4,3-c]pyridin-1-yl]cyclohexanecarbonitrile] |  | 
0.61 nM | 1.5 nM | N#C[C@H]1CCCC[C@@H]1n1nc(Nc2cccc([C@H](N)C(F)(F)F)c2)c2c(=O)[nH]ccc21 [Example 7-1, (1S,2S)-2-(3-((3-((S)-1-Amino-2,2,2-trifluoroethyl)phenyl)amino)-4-oxo-4,5-dihydro-H-pyrazolo[4,3-c]pyridin-1-yl)cyclohexanecarbonitrileecarbonitrile] |  | 
